Experimental data taken from US5994368A, “Pyridopyrimidones, quinolines and fused N-heterocycles as bradykinin antagonists” (Fujisawa Pharmaceutical Co., Ltd., priority 1994, dated 1999).
Where a name gives a salt, the structure may show the parent alone.

target: T1, Bradykinin receptor (Cavia porcellus, UniProt O70526); experiment: 3H-Bradykinin receptor binding (crude ileum membrane); parameters: species or system guinea pig (male Hartly strain); details: concentration: 1 × 10^-6 M; guinea pig ileum membrane, room temperature, 60 minutes
T1 construct: The ileum was removed and homogenized in buffer; from tissue; host or cells: guinea pig ileum, crude membrane suspension
T1 sequence (O70526 1-372): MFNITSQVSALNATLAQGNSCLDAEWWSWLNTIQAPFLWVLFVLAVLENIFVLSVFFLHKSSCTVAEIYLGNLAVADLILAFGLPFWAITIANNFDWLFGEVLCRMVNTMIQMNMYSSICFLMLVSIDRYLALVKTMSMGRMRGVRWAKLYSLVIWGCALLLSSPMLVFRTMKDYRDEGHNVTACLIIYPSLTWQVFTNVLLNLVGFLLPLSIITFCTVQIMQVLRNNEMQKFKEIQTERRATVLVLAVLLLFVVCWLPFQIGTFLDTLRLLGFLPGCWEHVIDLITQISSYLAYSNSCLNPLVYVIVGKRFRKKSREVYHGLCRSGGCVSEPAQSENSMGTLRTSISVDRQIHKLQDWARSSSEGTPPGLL
Procedure: ^3 H-Bradykinin receptor binding
(a) Crude ileum membrane preparation
Male Hartly strain guinea pigs were sacrificed by decapitation. The ileum was removed and homogenized in buffer (50 mM trimethylaminoethanesulfonic acid (TES), 1 mM 1,10-phenanthroline pH 6.8). The homogenate was centrifuged (1000× g, 20 minutes) to remove tissue clumps and the supernatant was centrifuges (100,000× g, 60 minutes) to yield a pellet. The pellet was resuspended in buffer (50 mM TES, 1 mM 1,10-phenanthroline, 140 mg/l bacitracin, 1 mM dithiothreiol, 0.1% bovine serum albumin pH 6.8) and homogenized with a glass-teflon homogenizer to yield suspension which was referred to as crude membrane suspension. The obtained membrane suspension was stored at -80° C. until use.
(b) ^3 H-Bradykinin binding to the membrane
The frozen crude membrane suspension was thawed. In binding assays, ^3 H-Bradykinin ([…]) and drug (1×10^-6 M) were incubated with 50 μl of the membrane suspension at room temperature for 60 minutes in a final volume of 250 μl. Separation of receptor-bound from free ^3 H-Bradykinin is achieved by immediate filtration under vacuum and washed three times with 5 ml of ice-cold buffer (50 mM Tris-HCl pH 7.5). Non-specific binding was defined as binding in the presence of 0.1 μM Bradykinin. The radioactivity retained on rinsed filters was determined by a liquid-scintillation counter.

Structure (SMILES) | inhibition at 1 µM [%]
CNC(=O)c1ccc(/C=C/C(=O)NCC(=O)N(C)c2ccc(Cl)c(CNc3cccc4ccc(C)nc34)c2Cl)cc1 [Example 73-(4), 8-[2,6-dichloro-3-[N-methyl-N-[4-(methylcarbamoyl)cinnamoylglycyl]amino]benzylamino]-2-methylquinoline dihydrochloride] | 95
CNC(=O)c1ccc(/C=C/C(=O)NCC(=O)N(C)c2ccc(Cl)c(COc3cccc4c(NCCOC)cc(C)nc34)c2Cl)cc1 [10-(9) dihydrochloride] | 99
CNC(=O)c1nc2ccc(C(=O)NCC(=O)N(C)c3ccc(Cl)c(COc4cccc5ccc(C)nc45)c3Cl)cc2cc1C [25-(2) dihydrochloride] | 96
COC(=O)c1cncc(NC(=O)NCC(=O)N(C)c2ccc(Cl)c(COc3cccc4ccc(C)nc34)c2Cl)c1 [34-(3), 8-[2,6-Dichloro-3-[N-[N'-(5-methoxycarbonylpyridin-3-yl)ureidoacetyl]-N-methylamino]benzyloxy]-2-methylquinoline] | 100

More lines, now with the values ahead:

inhibition at 1 µM [%] | Structure (SMILES)
98 | CNC(=O)c1ccc(/C=C/C(=O)NCC(=O)N(C)c2ccc(C)c(COc3cccn4c(=O)cc(C)nc34)c2C)cc1 [90-(2), 9-[2,6-Dimethyl-3-[N-methyl-N-[4(methylcarbomoyl)cinnamoylglycyl]amino]benzyloxy]-2-methyl-4H-pyrido-[1,2-a]pyrimidin-4-one]
100 | CNC(=O)c1ccc(/C=C/C(=O)NCC(=O)N(C)c2ccc(Cl)c(COc3cccc4ccc(C)nc34)c2)cc1 [37-(5) hydrochloride]
96 | Cc1ccc2cccc(OCc3c(Cl)ccc(N(C)C(=O)CNC(=O)CNc4nc5ccccc5s4)c3Cl)c2n1 [2-(14), 8-[3-[N-[2-(2-Benzothiazolylamino)acetylglycyl]-N-methylamino]-2,6-dichlorobenzyloxy]-2-methylquinoline]
